Results from patent US20200188388A1, “METHODS AND COMPOSITIONS FOR PO[…] DRUGS AND REDUCING THEIR SIDE EFFECTS” (RVX THERAPEUTICS LTD., priority 2016, published 2020).

System: Wistar rats
Assay: Open field test, hypokinetic (sedative) or hyperkinetic action (analgesia examples)
Procedure: (§1) To evaluate the hypokinetic (sedative) or hyperkinetic action effects of tested drugs an “open field” (OF) test was applied. In the OF test, the locomotive activity of rats is determined. Animals were placed in the center of square of the illuminated field (1 meter×1 meter) for 3 minutes and the mobility time was recorded in seconds (horizontal activity). […] To quantify the locomotive activity for each dose of test drug(s) an average horizontal activity was calculated.
as §1
To evaluate the hypokinetic (sedative) effects of drugs, “open field” (OF) test was applied. In the OF test, the locomotive activity of rats is determined. Animals were placed in the center of square of the illuminated field (1 meter×1 meter) for 3 minutes and the mobility time was recorded in seconds (horizontal activity). […] To quantify the locomotive activity for each dose of test drug(s), an average horizontal activity was calculated.
Tail-Flick and Open Field Tests were Conducted as Detailed Above.
as §1

For `CC12CC3CC(C)(C1)CC(N)(C3)C2` [Memantine, memantine], the Sedation (I.M., doses by row as E3) was 0 % of Rats, the Hyperkinesia or sedation (unmarked cells, doses as E6) was 0 % rats and the Hyperkinesia or sedataion (unmarked cells, doses as E12) was 0 % rats. It also gave a Hyperkinesia (unmarked cells, doses as E48) of 0 % rats and a Hyperkinesia (unmarked cells, doses as E54) of 0 % rats.
